Source: publication PMC7069944, “Amino acid levels determine metabolism and CYP450 function of hepatocytes and hepatoma cell lines” (Nature Communications, 2020)
Values joined by “and” are separate entries in the source; they are usually repeats but may differ in a detail not shown here. Equal entries are not always repeated.

Experiments:
Conditions in all cases: repeat exposure
[1] = tested on: HepG2; test: Repeated-exposure DILI training compounds, resazurin conversion, HepG2
In short: (§1)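 Viability by resazurin conversion, correlated with Cmax, was assessed after drug exposure in 384-well cultures of differentiated PSCs and of HepG2 (40,000 cells/well). Dosing began 8 h post-attachment, with untreated wells as negative control.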

[2] = tested on: HLC; test: Repeated-exposure DILI training compounds, resazurin conversion, HLC
In short: as §1

[3] = tested on: HC3X; test: Repeated-exposure DILI training compounds, resazurin conversion, HC3X
In short: as §1

[4] = tested on: HC6X; test: Repeated-exposure DILI training compounds, resazurin conversion, HC6X
In short: as §1

SMILES: CN(C)C(=N)N=C(N)N [metformin]
- % resazurin conversion ([1]; HepG2 AAGLY D30, 3 uM): 106.5% and 83.4% and 85.8% and 89.2% and 108.4% and 105.4%
- % resazurin conversion ([1]; HepG2 AAGLY D30, 5 uM): 88% and 69.4% and 79.7% and 91.5% and 76.9% and 122.8%
- % resazurin conversion ([1]; HepG2 AAGLY D30, 10 uM): 92.9% and 78.4% and 78.2% and 87.4% and 93.3%
- % resazurin conversion ([1]; HepG2 AAGLY D30, 30 uM): 87% and 68% and 60.1% and 90.4% and 65.8% and 86.5%
- % resazurin conversion ([1]; HepG2 AAGLY D30, 50 uM): 88% and 78.4% and 75.6% and 85.4% and 68.8% and 94.1%
- % resazurin conversion ([1]; HepG2 AAGLY D30, 100 uM): 77.9% and 69.4% and 77.6% and 78.3% and 71.2% and 86.1%
- % resazurin conversion ([1]; HepG2 AAGLY D30, 300 uM): 86.3% and 86.2% and 78.9% and 85.6% and 74.5% and 86.7%
- % resazurin conversion ([1]; HepG2 AAGLY D30, 600 uM): 84.6% and 71.8% and 75.9% and 95.3% and 64.4% and 77.4%
- % resazurin conversion ([1]; HepG2 AAGLY D30, 1200 uM): 73.9% and 67.2% and 67.9% and 98.6% and 62.2% and 57.6%
- % resazurin conversion ([1]; HepG2 CTL D7, 3 uM): 101.7%
- % resazurin conversion ([1]; HepG2 CTL D7, 5 uM): 111.2% and 104.6% and 117.2% and 107.8% and 111% and 112.7%
- % resazurin conversion ([1]; HepG2 CTL D7, 10 uM): 105.8% and 104.6% and 92.9% and 101.2% and 94.9% and 100.3%
- % resazurin conversion ([1]; HepG2 CTL D7, 30 uM): 99.1% and 100.4% and 105.9% and 109.1% and 102.2%
- % resazurin conversion ([1]; HepG2 CTL D7, 50 uM): 97.6% and 97.7% and 100.3% and 99.5% and 102% and 100.6%
- % resazurin conversion ([1]; HepG2 CTL D7, 100 uM): 101.5% and 103.6% and 107.4% and 101.8% and 103.4% and 105%
- % resazurin conversion ([1]; HepG2 CTL D7, 300 uM): 89.7% and 83.5% and 88.5% and 95.8% and 93.1% and 96.3%
- % resazurin conversion ([1]; HepG2 CTL D7, 600 uM): 92.6% and 88.6% and 89.1% and 90.3% and 94.1% and 93.8%
- % resazurin conversion ([1]; HepG2 CTL D7, 1200 uM): 80.9% and 84% and 84.2% and 85.5% and 84.4%
- % resazurin conversion ([2]; HLC AAGLY D40, 3 uM): 117.8% and 180.2% and 192.1% and 138.7% and 131.9% and 161.2%
- % resazurin conversion ([2]; HLC AAGLY D40, 10 uM): 85.1% and 137.4% and 97.3% and 121% and 128.3% and 141.7%
- % resazurin conversion ([2]; HLC LDM D40, 3 uM): 115.5% and 119.8% and 128.3% and 105.8% and 132.2% and 110.8%
- % resazurin conversion ([2]; HLC LDM D40, 10 uM): 112.2% and 115.2% and 101.7% and 107.6% and 122.7% and 95.8%
- % resazurin conversion ([2]; HLC LDM D40, 30 uM): 101.1% and 127.7% and 123.7% and 100.6% and 111.7% and 97.3%
- % resazurin conversion ([2]; HLC LDM D40, 50 uM): 69.5% and 123.5% and 118.7% and 111% and 112.5% and 97.1%
- % resazurin conversion ([2]; HLC LDM D40, 100 uM): 130.3% and 131.7% and 140% and 109.2% and 99.5% and 135.5%
- % resazurin conversion ([2]; HLC LDM D40, 300 uM): 131.8% and 130.1% and 119.9% and 132.8% and 107.9% and 132.1%
- % resazurin conversion ([2]; HLC LDM D40, 600 uM): 142.1% and 137.1% and 121.7% and 130.5% and 134.1% and 94.8%
- % resazurin conversion ([2]; HLC LDM D40, 1200 uM): 117% and 113% and 129.7% and 145.7% and 140.5% and 102.5%
- % resazurin conversion ([3]; HC3X AAGLY D40, 3 uM): 107.4% and 112.9% and 102.8% and 86.5% and 93.5% and 86.7%
- % resazurin conversion ([3]; HC3X AAGLY D40, 5 uM): 117.3% and 115.7% and 110.3% and 104.4% and 106.7% and 61.4%
- % resazurin conversion ([3]; HC3X AAGLY D40, 10 uM): 108.5% and 87.5% and 112.1% and 74.4% and 97.6% and 102.3%
- % resazurin conversion ([3]; HC3X AAGLY D40, 30 uM): 105.4% and 101.2% and 96.4% and 131.5% and 86.6% and 96.2%
- % resazurin conversion ([3]; HC3X AAGLY D40, 50 uM): 110.2% and 114.4% and 75% and 103.1% and 92.6% and 99.9%
- % resazurin conversion ([3]; HC3X AAGLY D40, 300 uM): 121.9% and 148% and 124.4% and 102.2% and 122.5% and 91.9%
- % resazurin conversion ([3]; HC3X AAGLY D40, 600 uM): 150.2% and 156.7% and 145.2% and 144.4% and 152.7% and 115%
- % resazurin conversion ([3]; HC3X AAGLY D40, 1200 uM): 124.1% and 158.2% and 141.5% and 92.2% and 126.1% and 100%
- % resazurin conversion ([4]; HC6X AAGLY D40, 3 uM): 75.6% and 127.9% and 120.9% and 66.8% and 78.3% and 77.4%
- % resazurin conversion ([4]; HC6X AAGLY D40, 10 uM): 91.8% and 85.1% and 137.3% and 90.8% and 71.9% and 90%
- % resazurin conversion ([4]; HC6X AAGLY D40, 30 uM): 64% and 86.6% and 97% and 73.8% and 121% and 127.4%
- % resazurin conversion ([4]; HC6X AAGLY D40, 50 uM): 73.2% and 144.6% and 104.7% and 102.8% and 73.1% and 92.5%
- % resazurin conversion ([4]; HC6X AAGLY D40, 100 uM): 106.4% and 149.7% and 103.6% and 154.2% and 106.5% and 116.8%
- % resazurin conversion ([4]; HC6X AAGLY D40, 300 uM): 112.1% and 78.2% and 96.7% and 122.1% and 97.1% and 124%
- % resazurin conversion ([4]; HC6X AAGLY D40, 1200 uM): 183.8% and 127.4% and 126.7% and 100% and 123.1%
- % resazurin conversion ([4]; HC6X AAGLY D40 Remove dox, 3 uM): 170.2% and 195.5% and 109.9% and 145.7% and 191.7% and 155.1%
- % resazurin conversion ([4]; HC6X AAGLY D40 Remove dox, 5 uM): 151.1% and 130.1% and 149.6% and 123.6% and 100% and 119.7%
- % resazurin conversion ([4]; HC6X AAGLY D40 Remove dox, 10 uM): 137.7% and 116.6% and 122.1% and 87.2% and 162.4%
- % resazurin conversion ([4]; HC6X AAGLY D40 Remove dox, 30 uM): 189% and 104.3% and 104.5% and 116.4% and 109.9% and 115%
- % resazurin conversion ([4]; HC6X AAGLY D40 Remove dox, 50 uM): 175.2% and 137% and 132.8% and 158.7% and 156.7% and 106.3%
- % resazurin conversion ([4]; HC6X AAGLY D40 Remove dox, 100 uM): 169.7% and 178.1% and 127.2% and 203.2% and 156.7% and 201.6%
- % resazurin conversion ([4]; HC6X AAGLY D40 Remove dox, 300 uM): 161.6% and 125.1% and 195.3% and 144.9% and 140.1%
- % resazurin conversion ([4]; HC6X AAGLY D40 Remove dox, 600 uM): 164.3% and 170.2% and 157.3% and 178.7% and 172.2% and 213.4%
- % resazurin conversion ([4]; HC6X AAGLY D40 Remove dox, 1200 uM): 129.6% and 183.1% and 151.5% and 181.6% and 201.4% and 154.1%
